{"source": "paper PMC12473165", "about": "“Theranostic Potential of a New ^64Cu-Labeled NOTA-R954 Peptide Conjugate for Kinin B1R Expressing Prostate Cancer” (Pharmaceutics, 2025)", "key": {"hB1R [1]": {"molecular_target": "T1, hB1R (Homo sapiens, UniProt P46663)", "T1 sequence (P46663 1-353)": "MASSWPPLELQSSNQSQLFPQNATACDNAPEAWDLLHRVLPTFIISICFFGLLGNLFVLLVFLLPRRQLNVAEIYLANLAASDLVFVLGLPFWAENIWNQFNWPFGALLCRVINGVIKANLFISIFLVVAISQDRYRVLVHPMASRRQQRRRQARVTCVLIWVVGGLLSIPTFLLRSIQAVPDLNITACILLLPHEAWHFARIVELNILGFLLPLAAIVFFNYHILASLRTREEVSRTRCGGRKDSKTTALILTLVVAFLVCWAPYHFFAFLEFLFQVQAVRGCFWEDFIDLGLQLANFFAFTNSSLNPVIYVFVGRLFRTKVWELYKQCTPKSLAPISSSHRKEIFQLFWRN", "assay": "Radioligand competition binding on HEK293 cells stably expressing hB1R", "set-up": "expressed in transfected cells; host or cells: QBI-HEK293A (lentiviral transduction, puromycin selection)", "conditions": "HEK293 cells stably expressing hB1R; competition with 4 nM [3H]Lys[Leu8]desArg9BK, 1-2 h, serum-free DMEM; means of 2 independent experiments in triplicates; read-out: B1R HEK293 IC50"}, "native hB1R": {"molecular_target": "T2, native hB1R (Homo sapiens, UniProt P46663)", "T2 construct": "from tissue; host or cells: isolated human umbilical vein (HUV)", "T2 sequence (P46663 1-353)": "T1 sequence (P46663 1-353)", "assay": "Human umbilical vein (HUV) contractility bioassay, B1R", "conditions": "isolated human umbilical vein contraction, DBK agonist at submaximal concentration; means of 2 independent experiments", "experimental": "The potency (apparent affinity) of non-radioactive NOTA-βAla-R954 peptide conjugates at native inducible B1R was assessed using human tissue bioassays with isolated umbilical veins, as previously described. Collection of umbilical cords for these bioassays was approved by the CHUS Human Research Ethics Committee (protocol #97-14; 21 March 1997), and maternal consent was obtained in all cases. Antagonist affinity was expressed in terms of IC50, which represents the molar concentration of an antagonist that reduces the response to a submaximal concentration of the DBK agonist by 50%."}, "hB1R [2]": {"molecular_target": "T1, hB1R", "assay": "NFAT-eGFP reporter assay in CHO-hB1R-NFAT-eGFP cells", "type": "cell-based", "set-up": "expressed in transfected cells; host or cells: CHO (hB1R-expressing line, then transduced with NFAT-eGFP reporter)", "text": "The pLenti-6V5-NFAT-eGFP vector was generated from the pSIRV-NFAT-eGFP vector (a gift from Peter Steinberger, Addgene plasmid #118031). Briefly, NFAT-eGFP gene was PCR amplified using the following primers: 5′-[…]-3′ and 5′-[…]-3′). The amplified gene was then ligated into the ClaI and AgeI restriction sites of the pLenti-6V5 vector. Lentiviruses were produced using the pLenti-6V5-NFAT-eGFP vector in HEK293T cells and used to transduce a hB1R-expressing CHO cell line, followed by selection with 10 µg/mL blasticidin. […] Clones were grown in 4000 nanowells/well in 24-well plates and re-plated into 96-well plates after initial expansion via the ALS CellCelector™ (Sartorius Corporation, Bohemia, NY, USA). After clonal expansion, individual cell lines were evaluated based on their ratio of stimulated fluorescence to basal expression to determine maximum sensitivity.\nFluorescence assays performed on CHO-hB1R-NFAT-eGFP cells. Target cells were plated at 10,000 cells/well in a 96-well microplate (opaque black wells with clear flat bottom, Thermo Scientific, Rockford, IL, USA) using RPMI 1640 medium with 10% fetal bovine serum (FBS). After 24 h, the medium was replaced by RPMI without FBS and phenol red. […] Fluorescence was measured using a TECAN M1000 (Tecan Group Ltd., Männedorf, Switzerland) multimode microplate reader with excitation at 488 nm and emission at 507 nm. Each data point represents a ratio of two values, divided by the average fluorescence of six control wells. […] Antagonist affinity (Kb) was estimated from functional inhibition curves using the Gaddum (Schild) equation assuming competitive antagonism at human B1R: Kb = [B]/(dose-ratio–1), where [B] is the antagonist concentration, and the dose ratio is EC50 + Compound/EC50."}, "hB2R [3]": {"molecular_target": "T3, hB2R (Homo sapiens, UniProt P30411)", "T3 sequence (P30411 1-391)": "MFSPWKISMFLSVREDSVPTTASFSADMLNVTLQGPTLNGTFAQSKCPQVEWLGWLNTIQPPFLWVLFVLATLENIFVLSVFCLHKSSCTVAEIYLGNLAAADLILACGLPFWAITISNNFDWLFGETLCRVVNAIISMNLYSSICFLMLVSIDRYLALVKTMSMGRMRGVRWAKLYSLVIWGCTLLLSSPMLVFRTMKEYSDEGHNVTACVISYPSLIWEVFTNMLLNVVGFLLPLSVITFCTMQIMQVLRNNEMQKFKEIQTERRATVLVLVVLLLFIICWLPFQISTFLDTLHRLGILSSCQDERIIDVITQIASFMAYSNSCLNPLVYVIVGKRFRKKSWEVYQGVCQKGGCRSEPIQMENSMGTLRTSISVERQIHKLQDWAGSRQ", "assay": "Radioligand competition binding on HEK293 cells stably expressing hB2R", "conditions": "competition with 1 nM [3H]BK, 1-2 h, serum-free DMEM, means of 2 independent experiments in triplicates, read-out: B2R HEK293 IC50", "experimental": "Radiolabeled ligand competition binding assays were performed on HEK293 cells stably expressing hB1R or hB2R, as previously described. Cells were cultured in 24-well plates and incubated with 4 nM [^3H]Lys[Leu^8]desArg^9BK (for B1R studies) (ART1583; 90–120 Ci/mmol; American Radiolabeled Chemicals) or 1 nM [^3H]BK (for B2R studies) (NET706; 109 Ci/mmol; Perkin-Elmer, Woodbridge, ON, Canada) in serum-free DMEM for 1–2 h in the absence or presence of increasing concentrations of competitors (10^−11–10^−5M). Radioactivity in the samples was measured using a β-scintillation counter (Tri-Carb 2800; Perkin-Elmer). Binding affinities were expressed as IC50 values, calculated using GraphPad Prism version 8.2.1 software (GraphPad Software, San Diego, CA, USA)."}, "hB2R [4]": {"molecular_target": "T3, hB2R", "assay": "Human umbilical vein (HUV) contractility bioassay, B2R", "set-up": "native (HUV) human kinin B1R and B2R; from tissue; host or cells: isolated human umbilical vein (HUV)", "conditions": "isolated human umbilical vein contraction; means of 2 independent experiments"}}, "note": "Square brackets hold non-standard residues; d marks the D form. Peptide text beside a SMILES is read from it. Oic = O=C(O)[C@@H]1C[C@@H]2CCCC[C@@H]2N1; d2Nal = N[C@H](Cc1ccc2ccccc2c1)C(=O)O; αMeF = C[C@](N)(Cc1ccccc1)C(=O)O; Orn = NCCC[C@H](N)C(=O)O"}
{"smiles": "CC[C@H](C)[C@H](NC(=O)[C@@H](Cc1ccc2ccccc2c1)NC(=O)[C@H](CO)NC(=O)[C@](C)(Cc1ccccc1)NC(=O)CNC(=O)[C@@H]1CCCN1C(=O)[C@@H]1C[C@@H]2CCCC[C@@H]2N1C(=O)[C@H](CCCNC(=N)N)NC(=O)[C@H](CCCN)NC(C)=O)C(=O)O", "note": "[R954, AcOrn[Oic^2,^(αMe)Phe5,DβNal^7,Ile^8]desArg^9-bradykinin] (Ac-[Orn]R[Oic]PG[αMeF]S[d2Nal]I-OH)", "values": [{"measurement": "IC50", "setting": "hB1R [1]", "value": 2, "unit": "nM"}, {"measurement": "IC50", "setting": "native hB1R", "value": 3, "unit": "nM"}, {"measurement": "IC50", "setting": "hB1R [2]; hB1R-stably expressing CHO-NFAT cells, antagonist potency, means of two independent experiments, read-out: CHO-NFAT IC50 (Table S1)", "value": 1.4, "unit": "nM"}, {"measurement": "Kb", "setting": "hB1R [2]; read-out: B1R-NFAT CHO Kb", "value": 1.4, "unit": "nM"}, {"measurement": "IC50", "setting": "hB2R [3]", "value": "> 10000", "unit": "nM"}, {"measurement": "IC50", "setting": "hB2R [4]", "value": "> 10000", "unit": "nM"}]}
